Tests used:
[1] = Precipitation on dilution of stock into experiment bath solution; format: physicochemical; settings: 1 M stock in 100% DMSO; bath 1, 3 and 5 mM
Description: All compounds were recorded with a fixed DMSO concentration of 0.1% throughout the experiments. Due to the fact that alpha-lipoic acid was investigated at concentrations between 100 μM and 5 mM, the solvent concentration reached 0.7%. […] Working solutions of all compounds were freshly prepared for each experiment day and between 0.9 and 10 μL were applied to a 1 mL experiment bath solution.

[2] = test system: frontal cortex neuronal networks (cortical network activity in vitro); assay: Acute effects on cortical neuronal network activity on MEA neurochips (spike train analysis); format: cell-based, mice
Description: The experiments were performed according to the SOPs, “SOP Preparation Frontal Cortex Mouse—Serum (Rev. 07 2012 Mar. 6 eng)”, “SOP Solutions for Neuronal Cell Culture (Rev. 04 2009 Nov. 18 eng)”, “SOP Cleaning and Substrate Preparations of MEAs (Rev. 03 2009 Apr. 26 eng)”, “SOP Feeding neuronal cell culture”, “SOP Cell culture preparation MEAs”, “SOP Plexon Recording” and “SOP Plexon Data Analysis”.
The microelectrode array neurochips (“MEA neurochips”) were provided by the Center for Network Neuroscience (CNNS) at the University of North Texas. These 5×5 cm^2 glass chips have a dual recording matrix with 32 passive electrodes per matrix and indium tin oxide conductors. The hydrophobic insulation material surface was activated by a brief butane flame pulse through a stainless steel mask. Thus, cell attachment on a confined region, a 5 mm diameter centered on the electrode array, is ensured. The activated face regions were coated with 25 μg/mL poly-D-lysine (30-70 kD) and incubated […] in 16 μg/mL laminin for 3 hours right before the preparation.
Frontal cortex tissue was harvested from embryonic day 15 chr:NMRI mice. Mice were sacrificed by cervical dislocation according to the German Animal Protection Act Section 4. Cultures on MEAs were incubated at 37 deg. C. in a 10% CO2 atmosphere until ready for use, which usually is four weeks to three months after seeding. Culture media were replenished two times a week with DMEM containing 10% heat inactivated horse serum. The developing co-cultures were treated with the mitosis inhibitor 5-fluoro-2′-deoxyuridine (25 μMolar) and uridine (63 μMolar) for 48 hours on day 5 after seeding to prevent further glial proliferation.
After establishing a stable activity pattern after 4 weeks, the neuronal networks on MEA chips were employed for substance testing. For this example, cultures between 25 and 38 days in vitro were used. For extracellular recording, MEA neurochips were placed into sterilized constant-bath recording chambers and maintained at 37 deg. C. Recordings were made in DMEM including 10% heat inactivated horse serum. The pH was maintained at 7.4 with a continuous stream of filtered, humidified airflow with 10% CO2. Sets of preamplifiers were positioned to either side of the recording chamber. Recording was performed with the multichannel acquisition processor system, a computer-controlled 64-channel amplifier system (Plexon, Inc., Dallas, Tex., USA) providing programmable amplification, filtering, switching, and digital signal processing of microelectrode signals. The total system gain used was 10K with a simultaneous 40 kHz sampling rate. The signals routinely recorded by these neurochips are located in a range of 15-1800 microV.
The multichannel signal acquisition system delivered single neuron spike data. Spike identification and separation were accomplished with a template-matching algorithm in real time. This allows for the extracellular recording from action potentials from a maximum of 256 neurons simultaneously.
The action potentials, or spikes, were recorded in spike trains and are clustered in so-called bursts. Bursts were quantitatively described via direct spike train analysis using the program NeuroEXplorer (Plexon Inc., Dallas, Tex., USA) and in house programs. Bursts were defined by the beginning and the end of short spike invents. Maximum spike intervals defining the start of a burst were 40 ms and maximum intervals to end a burst from 200 ms.
All compounds were recorded with a fixed DMSO concentration of 0.1% throughout the experiments. Due to the fact that alpha-lipoic acid was investigated at concentrations between 100 μM and 5 mM, the solvent concentration reached 0.7%.
The high content analysis of the network activity patterns provides a multiparametric description characterized in four activity categories: general activity, burst structure, synchronicity and oscillatory behavior. […]

[3] = test system: neuronal activity (spike rate and burst rate); assay: Chronic effects of hBDNF on neuronal activity development in the MEA system; format: cell-based; settings: 20 ng/ml, FIG. 15
Description: For neurotrophic factors such as hBDNF, NeuroProof tested the chronic effects in the MEA system (See FIG. 15).

## O=C(O)CCCCC1CCSS1 (stereo not drawn) [ALA, alpha-lipoic acid]
[1]
  precipitation during dilution: precipitation of alpha-lipoic acid occurred at the three highest concentrations
[2]; 100 μM alpha-lipoic acid, FIG. 6
  activity reached (spike rate fit): 91.5 % of control (0.1% DMSO) activity
[2]; 1 mM alpha-lipoic acid, FIG. 6
  activity reached (spike rate fit): 83.6 % of control (0.1% DMSO) activity
[2]; 5 mM alpha-lipoic acid, FIG. 6
  activity reached (spike rate fit): 43.9 % of control (0.1% DMSO) activity
[2]; FIG. 6
  concentration at which general activity is affected (spike rate fit): above 100 μM
[2]; Mus musculus, concentration of ALA, FIGS. 9 and 10, read-out: EC50 for the decline of activity
  EC50: 5.03 mM
[2]; concentrations above 100 μM ALA, higher value = steeper slope
  Hill coefficient (nH) of the decline of activity: 1.66
[2]; experimental concentrations
  concentration at which general activity is reduced: ≥ 1 mM

## CC/C=C\C/C=C\C/C=C\C/C=C\C/C=C\C/C=C\CCC(=O)O [DHA, docosahexaenoic acid]
[2]; 100 μM DHA, highest tested concentration, FIG. 5
  activity (spike rate fit), activity decline reached: 63.6 % of native activity
[2]; increasing effects at higher concentrations
  concentration at which spike rates and burst rates are reduced: ≥ 100 pM

## hBDNF: Human recombinant brain derived neurotrophic factor, PeproTech #450-02
[3]; chronic
  acceleration of neuronal activity development: approximately one week
[3]; versus vehicle
  general activity (spike rate, burst rate), chronic treatment: increases the general activity at every recorded time point
[2]; above 500 pg/mL, tested 10 pg/mL to 50 μg/mL
  effect on general activity: only shows slight effects on the general activity which is numerically increased
[2]; acute application
  EC50 on spike rate: 5.28 ng/mL

— US9226914B2, “Methods for promoting neuronal development and/or health” (Mead Johnson Nutrition Company, priority 2013, dated 2016)
